Target: T1, Human M4 (Homo sapiens, UniProt P08173)
T1 construct: expressed in transfected cells; host or cells: CHO-K1 (ATCC), stably expressing hM4 and Gqi5
T1 sequence (P08173 1-479): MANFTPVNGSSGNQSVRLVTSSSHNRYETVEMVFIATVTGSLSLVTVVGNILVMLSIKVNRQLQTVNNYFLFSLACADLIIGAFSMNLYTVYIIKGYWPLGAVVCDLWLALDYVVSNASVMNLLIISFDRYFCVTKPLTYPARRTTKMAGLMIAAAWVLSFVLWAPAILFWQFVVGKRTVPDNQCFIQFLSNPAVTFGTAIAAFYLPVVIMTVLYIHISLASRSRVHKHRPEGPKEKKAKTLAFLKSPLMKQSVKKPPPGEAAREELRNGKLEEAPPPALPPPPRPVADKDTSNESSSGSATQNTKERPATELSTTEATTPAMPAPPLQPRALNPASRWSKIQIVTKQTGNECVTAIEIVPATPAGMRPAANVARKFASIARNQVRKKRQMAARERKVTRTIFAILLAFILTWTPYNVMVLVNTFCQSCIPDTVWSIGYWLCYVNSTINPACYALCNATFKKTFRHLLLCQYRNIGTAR
Test: mAChR M4 cell-based functional assay (calcium flux, potentiation of EC20 acetylcholine response) in hM4-Gqi5 CHO-K1 cells
Settings: for Emax at 30 µM: % ACh maximum at 30 μM, human M4 CHO-K1 cells; for EC50: CHO-K1 cells transfected with human M4 and Gqi5, positive allosteric modulator activity, EC20 acetylcholine
Protocol: Human M4 cDNA, along with the chimeric G protein Gqi5, were transfected into Chinese hamster ovary (CHO-K1) cells purchased from the American Type Culture Collection using commercially available Lipofectamine 2000 transfection reagent (Dalby, B. et al., Methods (2004) 33(2), 95-103). hM4-Gqi5 cells were grown in Ham's F-12 medium containing 10% heat-inactivated fetal bovine serum (FBS), 20 mM HEPES, 50 μg/mL G418 sulfate (CAS #108321-42-2), and 500 μg/mL Hygromycin B. rM4-Gqi5 cells were grown in DMEM containing 10% heat-inactivated FBS, 20 mM HEPES, 400 μg/mL G418 sulfate, and 500 μg/mL Hygromycin B.
For high throughput measurement of agonist-evoked increases in intracellular calcium, CHO-K1 cells stably expressing muscarinic receptors were plated in growth medium lacking G418 sulfate and hygromycin at 15,000 cells/20 μL/well in Greiner 384-well black-walled, tissue culture (TC)-treated, clear-bottom plates (VWR). Cells were incubated overnight at 37° C. and 5% CO2. The next day, cells were washed using an ELX 405 (BioTek) with assay buffer; the final volume was then aspirated to 20 μL. Next, 20 μL of a 2.3 μM stock of Fluo-4/acetoxymethyl ester (Invitrogen, Carlsbad, CA), prepared as a 2.3 mM stock in DMSO and mixed in a 1:1 ratio with 10% (w/v) Pluronic F-127 and diluted in assay buffer, was added to the wells and the cell plates were incubated for 50 minutes at 37° C. and 5% CO2. Dye was removed by washing with the ELX 405 and the final volume was aspirated to 20 μL. Compound master plates were formatted in an 11 point concentration-response curve (CRC) format (1:3 dilutions) in 100% DMSO with a starting concentration of 10 mM using a BRAVO liquid handler (Agilent). Test compound CRCs were then transferred to daughter plates (240 nL) using the Echo acoustic plate reformatter (Labcyte, Sunnyvale, CA) and then diluted into assay buffer (40 μL) to a 2× stock using a Thermo Fisher Combi (Thermo Fisher Scientific, Waltham, MA).
Calcium flux was measured using the Functional Drug Screening System (FDSS) 6000 or 7000 (Hamamatsu Corporation, Tokyo, Japan) as an increase in the fluorescent static ratio. Compounds were applied to cells (20 μL, 2×) using the automated system of the FDSS at 2-4 seconds into the protocol and the data were collected at 1 Hz. […] Agonist activity was analyzed as a concentration-dependent increase in calcium mobilization upon compound addition. Positive allosteric modulator activity was analyzed as a concentration-dependent increase in the EC20 acetylcholine response. With the acetylcholine EC20 set as baseline, the test compound EC50 is determined as the concentration that produces an increase above baseline of 50% of the maximum increase in acetylcholine response elicted by the test compound. Antagonist activity was analyzed as a concentration-dependent decrease in the EC80 acetylcholine response. Concentration-response curves were generated using a four-parameter logistical equation in XLFit curve fitting software (IDBS, Bridgewater, NJ) for Excel (Microsoft, Redmond, WA) or Prism (GraphPad Software, Inc., San Diego, CA).
Compounds were synthesized as described above. Activity (EC50 and Emax) was determined in the mAChR M4 cell-based functional assay as described above and the data are shown in Table 5. The compound numbers correspond to the compound numbers used in Examples 1-13 and Tables 1, 2, and 3.

| Emax at 30 µM [%] | EC50 [nM] | Compound |
| --- | --- | --- |
| 96 | 60 | Cc1csc2ncnc(N3CCc4ncc(N5CCCn6nccc65)cc4C3)c12 [Compound 25, 4-[3-(6,7-dihydro-5H-pyrazolo[1,5-a]pyrimidin-4-yl)-7,8-dihydro-5H-1,6-naphthyridin-6-yl]-5-methyl-thieno[2,3-d]pyrimidine] |
| 75 | 280 | Cc1csc2ncnc(N3CCc4ncc(-c5cnn(C6CC6)c5)cc4C3)c12 [Compound 26, 4-[3-(1-cyclopropylpyrazol-4-yl)-7,8-dihydro-5H-1,6-naphthyridin-6-yl]-5-methyl-thieno[2,3-d]pyrimidine] |
| 36 | 2380 | Cc1ccc(F)c(Oc2cnc3c(c2)CN(c2ncnc4ccsc24)CC3)c1 [Compound 27, 4-[3-(2-fluoro-5-methyl-phenoxy)-7,8-dihydro-5H-1,6-naphthyridin-6-yl]thieno[3,2-d]pyrimidine] |
| 78 | 90 | Cc1nn(C)cc1-c1cnc2c(c1)CN(c1ncnc3scc(C)c13)CC2 [Compound 28, 4-[3-(1,3-dimethylpyrazol-4-yl)-7,8-dihydro-5H-1,6-naphthyridin-6-yl]-5-methyl-thieno[2,3-d]pyrimidine] |
| 74 | 310 | FC(F)(F)c1cnc2c(c1)CN(c1ncnc3scc(Br)c13)CC2 [Compound 29, 5-bromo-4-[3-(trifluoromethyl)-7,8-dihydro-5H-1,6-naphthyridin-6-yl]thieno[2,3-d]pyrimidine] |
| 88 | 80 | FC(F)(F)c1cnc2c(c1)CN(c1ncnc3sc(Br)cc13)CC2 [Compound 30, 6-bromo-4-[3-(trifluoromethyl)-7,8-dihydro-5H-1,6-naphthyridin-6-yl]thieno[2,3-d]pyrimidine] |
| 59 | 560 | Cc1csc2ncnc(N3CCc4ncc(Oc5ccccc5F)cc4C3)c12 [Compound 32, 4-[3-(2-fluorophenoxy)-7,8-dihydro-5H-1,6-naphthyridin-6-yl]-5-methyl-thieno[2,3-d]pyrimidine] |
| 46 | 200 | Fc1ccccc1Oc1cnc2c(c1)CN(c1ncnc3sccc13)CC2 [Compound 33, 4-[3-(2-fluorophenoxy)-7,8-dihydro-5H-1,6-naphthyridin-6-yl]thieno[2,3-d]pyrimidine] |
| 55 | 100 | Cn1nccc1Nc1cnc2c(c1)CN(c1ncnc3sccc13)CC2 [Compound 34, N-(2-methylpyrazol-3-yl)-6-thieno[2,3-d]pyrimidin-4-yl-7,8-dihydro-5H-1,6-naphthyridin-3-amine] |
| 78 | 160 | [2H]c1csc2ncnc(N3CCc4ncc(C(F)(F)F)cc4C3)c12 [Compound 36, 5-deuterio-4-[3-(trifluoromethyl)-7,8-dihydro-5H-1,6-naphthyridin-6-yl]thieno[2,3-d]pyrimidine] |
| 94 | 80 | Cc1coc2ncnc(N3CCc4ncc(Nc5cccnc5F)cc4C3)c12 [Compound 39, N-(2-fluoro-3-pyridyl)-6-(5-methylfuro[2,3-d]pyrimidin-4-yl)-7,8-dihydro-5H-1,6-naphthyridin-3-amine] |
| 86 | 50 | Cc1coc2ncnc(N3CCc4ncc(C(F)(F)F)cc4C3)c12 [Compound 41, 5-methyl-4-[3-(trifluoromethyl)-7,8-dihydro-5H-1,6-naphthyridin-6-yl]furo[2,3-d]pyrimidine] |
| 95 | 120 | Cc1nn(C)cc1-c1cnc2c(c1)CN(c1ncnc3occ(C)c13)CC2 [Compound 44, 4-[3-(1,3-dimethylpyrazol-4-yl)-7,8-dihydro-5H-1,6-naphthyridin-6-yl]-5-methyl-furo[2,3-d]pyrimidine] |

More lines, now with the values behind:

| Compound | Emax at 30 µM [%] | EC50 [nM] |
| --- | --- | --- |
| CC(C)c1cc2c(N3CCc4ncc(N5CCCn6nccc65)cc4C3)ncnc2s1 [Compound 31, 4-[3-(6,7-dihydro-5H-pyrazolo[1,5-a]pyrimidin-4-yl)-7,8-dihydro-5H-1,6-naphthyridin-6-yl]-6-isopropyl-thieno[2,3-d]pyrimidine] | 58 | 440 |
| Cc1noc(C)c1-c1cnc2c(c1)CN(c1ncnc3sc(C(C)C)cc13)CC2 [Compound 35, 4-[6-(6-isopropylthieno[2,3-d]pyrimidin-4-yl)-7,8-dihydro-5H-1,6-naphthyridin-3-yl]-3,5-dimethyl-isoxazole] | 22 | 1230 |
| FC(F)(F)c1cnc2c(c1)CN(c1ncnc3scc(C4CC4)c13)CC2 [Compound 37, 5-cyclopropyl-4-[3-(trifluoromethyl)-7,8-dihydro-5H-1,6-naphthyridin-6-yl]thieno[2,3-d]pyrimidine] | 22 | 1390 |
| Cc1coc2ncnc(N3CCc4ncc(-c5cnn(C6CC6)c5)cc4C3)c12 [Compound 38, 4-[3-(1-cyclopropylpyrazol-4-yl)-7,8-dihydro-5H-1,6-naphthyridin-6-yl]-5-methyl-furo[2,3-d]pyrimidine] | 83 | 60 |
| Cc1noc2ncnc(N3CCc4ncc(C(F)(F)F)cc4C3)c12 [Compound 40, 3-methyl-4-[3-(trifluoromethyl)-7,8-dihydro-5H-1,6-naphthyridin-6-yl]isoxazolo[5,4-d]pyrimidine] | 94 | 710 |
| Cc1coc2ncnc(N3CCc4ncc(N5CCCn6nccc65)cc4C3)c12 [Compound 42, 4-[3-(6,7-dihydro-5H-pyrazolo[1,5-a]pyrimidin-4-yl)-7,8-dihydro-5H-1,6-naphthyridin-6-yl]-5-methyl-furo[2,3-d]pyrimidine] | 99 | 10 |
| Cc1nn(C)cc1-c1cnc2c(c1)CN(c1ncnc3onc(C)c13)CC2 [Compound 43, 4-[3-(1,3-dimethylpyrazol-4-yl)-7,8-dihydro-5H-1,6-naphthyridin-6-yl]-3-methyl-isoxazolo[5,4-d]pyrimidine] | 80 | 590 |
| Cc1noc2ncnc(N3CCc4ncc(N5CCCn6nccc65)cc4C3)c12 [Compound 45, 4-[3-(6,7-dihydro-5H-pyrazolo[1,5-a]pyrimidin-4-yl)-7,8-dihydro-5H-1,6-naphthyridin-6-yl]-3-methyl-isoxazolo[5,4-d]pyrimidine] | 93 | 90 |
| Cc1noc2ncnc(N3CCc4ncc(-c5cnn(C6CC6)c5)cc4C3)c12 [Compound 46, 4-[3-(1-cyclopropylpyrazol-4-yl)-7,8-dihydro-5H-1,6-naphthyridin-6-yl]-3-methyl-isoxazolo[5,4-d]pyrimidine] | 75 | 370 |
| Cc1coc2ncnc(N3CCc4ncc(N5CCOc6ncccc65)cc4C3)c12 [Compound 47, 1-[6-(5-methylfuro[2,3-d]pyrimidin-4-yl)-7,8-dihydro-5H-1,6-naphthyridin-3-yl]-2,3-dihydropyrido[2,3-b][1,4]oxazine] | 125 | 50 |

— patent US20250017935A1, “7,8-DIHYDRO-5H-1,6-NAPHTHYRIDINE DERIVATIVES AS POSITIVE ALLOSTERIC MODULATORS OF THE MUSCARINIC ACETYLCHOLINE RECEPTOR M4 FOR TREATING NEUROLOGICAL AND PSYCHIATRIC DISORDERS” (Vanderbilt University, priority 2021, published 2025)
